# Results taken from patent publication US20100267561A1, “HERBICIDAL PYRIDAZINONE DERIVATIVES” (priority 2007, published 2010).
# Tests used:
# Assay in all cases: Test B pre-/postemergence plant response
# Type in all cases: in vivo
# [1] = system: common ragweed (Ambrosia elation); settings: for Ragweed plant response rating: 8 g ai/ha
# Summary of the method: (§1)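 Preemergence and postemergence (plants 2-18 cm, 1- to 4-leaf stage) applications used test chemicals in a non-phytotoxic solvent with surfactant. Plants were held in a greenhouse 13 to 15 days, then rated visually against controls on a 0-100 scale (0 no effect, 100 complete control).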
# [2] = system: lambsquarters (Chenopodium album); settings: for Lambsquarters plant response rating: 8 g ai/ha
# Summary of the method: as §1
# [3] = system: giant foxtail (Setaria faberii); settings: for Foxtail, Giant plant response rating: 8 g ai/ha
# Summary of the method: as §1
# [4] = system: catchweed bedstraw (Galium aparine); settings: Preemergence
# Summary of the method: as §1
# [5] = system: surinam grass (Brachiaria decumbens); settings: for Surinam Grass plant response rating: 8 g ai/ha
# Summary of the method: as §1
# [6] = system: morningglory (Ipomoea coccinea); settings: for Morningglory plant response rating: 8 g ai/ha
# Summary of the method: as §1
# [7] = system: pigweed (Amaranthus retroflexus); settings: for Pigweed plant response rating: 8 g ai/ha
# Summary of the method: as §1
# corn (Zea mays) = settings: for Corn plant response rating: 8 g ai/ha
# Summary of the method: as §1
# [8] = system: woolly cupgrass (Eriochloa villosa); settings: for Cupgrass, Woolly plant response rating: 8 g ai/ha
# Summary of the method: as §1
# [9] = system: goosegrass (Eleusine indica); settings: for Goosegrass plant response rating: 8 g ai/ha
# Summary of the method: as §1
# [10] = system: green foxtail (Setaria viridis); settings: for Foxtail, Green plant response rating: 8 g ai/ha
# Summary of the method: as §1
# wild oat (Avena fatua) = settings: for Oat, Wild plant response rating: 8 g ai/ha
# Summary of the method: as §1
# [11] = system: blackgrass (Alopecurus myosuroides); settings: for Blackgrass plant response rating: 8 g ai/ha
# Summary of the method: as §1
# [12] = system: downy bromegrass (Bromus tectorum); settings: for Bromegrass, Downy plant response rating: 8 g ai/ha
# Summary of the method: as §1
# [13] = Postemergence, 16 g ai/ha, scale 0 to 100
# [14] = Postemergence, 31 g ai/ha, scale 0 to 100, 0 no effect, 100 complete control
# [15] = Postemergence, 62 g ai/ha, scale 0 to 100, 0 no effect, 100 complete control
# [16] = Preemergence, 16 g ai/ha, scale 0 to 100 (0 no effect, 100 complete control)
# [17] = Preemergence, 31 g ai/ha, 0 to 100 scale, 0 no effect, 100 complete control
# [18] = Preemergence, 62 g ai/ha, scale 0 to 100
smiles,measurement,setting,value
Cc1cc(-c2ccc(Cl)cc2)nn1-c1c(OS(=O)(=O)c2ccccc2)cnn(C)c1=O [Compound 35],Ragweed plant response rating,"[1]; postemergence, 0-100 scale",0
same,"Plant response rating, Ragweed",[1]; [13],0
same,"Plant response rating, Ragweed",[1]; [14],0
same,"Plant response rating, Ragweed",[1]; [15],0
same,"Plant response rating, Ragweed",[1]; [16],0
same,"Plant response rating, Ragweed",[1]; [17],0
same,"Plant response rating, Ragweed",[1]; [18],0
same,Ragweed plant response rating,"[1]; Preemergence, scale 0 to 100",0
same,Lambsquarters plant response rating,"[2]; postemergence, 0-100 scale",0
same,"Plant response rating, Lambsquarters",[2]; [13],0
same,"Plant response rating, Lambsquarters",[2]; [14],0
same,"Plant response rating, Lambsquarters",[2]; [15],0
same,"Plant response rating, Lambsquarters",[2]; [16],0
same,"Plant response rating, Lambsquarters",[2]; [17],0
same,"Plant response rating, Lambsquarters",[2]; [18],0
same,Lambsquarters plant response rating,"[2]; Preemergence, scale 0 to 100",0
same,"Foxtail, Giant plant response rating","[3]; postemergence, 0-100 scale",90
same,"Plant response rating, Foxtail, Giant",[3]; [13],98
same,"Plant response rating, Foxtail, Giant",[3]; [14],100
same,"Plant response rating, Foxtail, Giant",[3]; [15],100
same,"Plant response rating, Foxtail, Giant",[3]; [16],100
same,"Plant response rating, Foxtail, Giant",[3]; [17],100
same,"Plant response rating, Foxtail, Giant",[3]; [18],100
same,"Foxtail, Giant plant response rating","[3]; Preemergence, scale 0 to 100",100
same,"Plant response rating, Galium","[4]; 16 g ai/ha, scale 0 to 100 (0 no effect, 100 complete control)",0
same,"Plant response rating, Galium","[4]; 31 g ai/ha, 0 to 100 scale, 0 no effect, 100 complete control",0
same,"Plant response rating, Galium","[4]; 62 g ai/ha, scale 0 to 100",20
same,Galium plant response rating,"[4]; 8 g ai/ha, scale 0 to 100",0
same,Surinam Grass plant response rating,"[5]; postemergence, 0-100 scale",70
same,"Plant response rating, Surinam Grass",[5]; [13],95
same,"Plant response rating, Surinam Grass",[5]; [15],100
same,"Plant response rating, Surinam Grass",[5]; [16],90
same,"Plant response rating, Surinam Grass",[5]; [17],100
same,"Plant response rating, Surinam Grass",[5]; [18],100
same,Surinam Grass plant response rating,"[5]; Preemergence, scale 0 to 100",45
same,Morningglory plant response rating,"[6]; postemergence, 0-100 scale",0
same,"Plant response rating, Morningglory",[6]; [13],0
same,"Plant response rating, Morningglory",[6]; [14],0
same,"Plant response rating, Morningglory",[6]; [15],0
same,"Plant response rating, Morningglory",[6]; [16],0
same,"Plant response rating, Morningglory",[6]; [17],0
same,"Plant response rating, Morningglory",[6]; [18],10
same,Morningglory plant response rating,"[6]; Preemergence, scale 0 to 100",0
same,Pigweed plant response rating,"[7]; postemergence, 0-100 scale",0
same,"Plant response rating, Pigweed",[7]; [13],0
same,"Plant response rating, Pigweed",[7]; [14],0
same,"Plant response rating, Pigweed",[7]; [15],0
same,"Plant response rating, Pigweed",[7]; [16],0
same,"Plant response rating, Pigweed",[7]; [17],0
same,"Plant response rating, Pigweed",[7]; [18],0
same,Pigweed plant response rating,"[7]; Preemergence, scale 0 to 100",0
same,Corn plant response rating,"corn (Zea mays); postemergence, 0-100 scale",40
same,"Plant response rating, Corn",corn (Zea mays); [13],90
same,"Plant response rating, Corn",corn (Zea mays); [14],100
same,"Plant response rating, Corn",corn (Zea mays); [15],100
same,"Plant response rating, Corn",corn (Zea mays); [16],40
same,"Plant response rating, Corn",corn (Zea mays); [17],55
same,"Plant response rating, Corn",corn (Zea mays); [18],90
same,Corn plant response rating,"corn (Zea mays); Preemergence, scale 0 to 100",5
same,"Cupgrass, Woolly plant response rating","[8]; postemergence, 0-100 scale",80
same,"Plant response rating, Cupgrass, Woolly",[8]; [13],95
same,"Plant response rating, Cupgrass, Woolly",[8]; [14],100
same,"Plant response rating, Cupgrass, Woolly",[8]; [15],100
same,"Plant response rating, Cupgrass, Woolly",[8]; [16],35
same,"Plant response rating, Cupgrass, Woolly",[8]; [17],100
same,"Plant response rating, Cupgrass, Woolly",[8]; [18],100
same,"Cupgrass, Woolly plant response rating","[8]; Preemergence, scale 0 to 100",35
same,Goosegrass plant response rating,"[9]; postemergence, 0-100 scale",20
same,"Plant response rating, Goosegrass",[9]; [13],40
same,"Plant response rating, Goosegrass",[9]; [14],70
same,"Plant response rating, Goosegrass",[9]; [15],75
same,"Plant response rating, Goosegrass",[9]; [16],100
same,"Plant response rating, Goosegrass",[9]; [17],100
same,"Plant response rating, Goosegrass",[9]; [18],100
same,Goosegrass plant response rating,"[9]; Preemergence, scale 0 to 100",80
same,"Foxtail, Green plant response rating","[10]; postemergence, 0-100 scale",0
same,"Plant response rating, Foxtail, Green",[10]; [13],75
same,"Plant response rating, Foxtail, Green",[10]; [14],95
same,"Plant response rating, Foxtail, Green",[10]; [15],95
same,"Plant response rating, Foxtail, Green",[10]; [16],100
same,"Plant response rating, Foxtail, Green",[10]; [17],100
same,"Plant response rating, Foxtail, Green",[10]; [18],100
same,"Foxtail, Green plant response rating","[10]; Preemergence, scale 0 to 100",30
same,"Oat, Wild plant response rating","wild oat (Avena fatua); postemergence, 0-100 scale",50
same,"Plant response rating, Oat, Wild",wild oat (Avena fatua); [13],70
same,"Plant response rating, Oat, Wild",wild oat (Avena fatua); [14],85
same,"Plant response rating, Oat, Wild",wild oat (Avena fatua); [15],95
same,"Plant response rating, Oat, Wild",wild oat (Avena fatua); [17],80
same,"Plant response rating, Oat, Wild",wild oat (Avena fatua); [18],95
same,"Oat, Wild plant response rating","wild oat (Avena fatua); Preemergence, scale 0 to 100",0
same,Blackgrass plant response rating,"[11]; postemergence, 0-100 scale",0
same,"Plant response rating, Blackgrass",[11]; [13],60
same,"Plant response rating, Blackgrass",[11]; [14],70
same,"Plant response rating, Blackgrass",[11]; [15],90
same,"Plant response rating, Blackgrass",[11]; [16],85
same,"Plant response rating, Blackgrass",[11]; [17],100
same,"Plant response rating, Blackgrass",[11]; [18],100
same,Blackgrass plant response rating,"[11]; Preemergence, scale 0 to 100",0
same,"Bromegrass, Downy plant response rating","[12]; postemergence, 0-100 scale",0
same,"Plant response rating, Bromegrass, Downy",[12]; [13],20
same,"Plant response rating, Bromegrass, Downy",[12]; [14],20
same,"Plant response rating, Bromegrass, Downy",[12]; [15],60
same,"Plant response rating, Bromegrass, Downy",[12]; [16],40
same,"Plant response rating, Bromegrass, Downy",[12]; [17],40
same,"Plant response rating, Bromegrass, Downy",[12]; [18],60
same,"Bromegrass, Downy plant response rating","[12]; Preemergence, scale 0 to 100",40
